“Also recorded” adds a separate entry of the source.
Assays:
[1] = test system: MIA PaCa-2 human pancreatic cancer subcutaneous xenograft; experiment: Pharmacodynamic evaluation in human pancreatic cancer subcutaneous xenograft mouse model; assay type: in vivo, BALB/c nude mice; details: for Relative tumor inhibition rate TGI: 0.19 mmoL/kg i.p. twice a week for 4 consecutive weeks (gemcitabine 50 mg/kg, others 110 mg/kg)
Protocol: Cell Culture: MIA PaCa-2 cells were cultured in a DMEM culture medium containing 10% fetal bovine serum and 2.5% HS. MIA PaCa-2 cells in an exponential growth phase were collected and resuspended in PBS to a suitable concentration for the subcutaneous tumor inoculation in nude mice.
Animal modeling and Grouping: BALB/c nude mice, female, 6 to 8 weeks old (the predicted weeks of age of the mice when being inoculated with tumor cells), 18 to 22 g, purchased from Shanghai Lingchang Biological Technology Co., LTD. A total of 52 mice (40 plus 30% surplus) were required. After grouping, there were 5 groups in total, each group having 8 mice. All experimental mice were raised in a barrier system and adapted to the environment for at least 7 days in advance. Each mice was subcutaneously inoculated with 3×10^6 MIA PaCa-2 cells on the right back and the cells were resuspended in PBS and matrigel (1:1) (0.1 ml/mice); the tumor growth was observed regularly, and when the tumor volumes reached an average size of 150 to 200 mm^3, the mice were randomly divided into groups according to the size of tumor and body weight of the mice, and the drugs were administered.
Relative tumor inhibition rate TGI(%): TGI %=(1−T/C)×100%. T/C % is the relative tumor growth rate, which is the percentage of the relative tumor volume or tumor weight of the treatment groups with respect to the control group at a certain timepoint. T and C are the relative tumor volume (RTV) or tumor weight (TW), respectively, of the treatment groups and the control group at a particular timepoint.
The calculation formula is as follows: T/C %=TRTV/CRTV×100% (TRTV: the average RTV of a treatment group; CRTV: the average RTV of the vehicle control group; RTV=Vt/V0, V0 is the tumor volume of an animal at the time of grouping, Vt is the tumor volume of an animal after treatment). Or T/C %=TTW/CTW×100% (TTW: the average tumor weight of a treatment group at the end of the experiment; CTW: the average tumor weight of the vehicle control group at the end of the experiment).

MIA PaCa-2 tumor cells = experiment: Tumor cell proliferation in vitro, CTG method, MIA PaCa-2; assay type: cell-based, human; details: MIA PaCa-2, 72 hours; for IC50: Homo sapiens
Protocol: (§1) The 50% inhibitory concentrations (IC50) for the cell proliferation of the compound Sp-1, the compound Rp-1 and NUC-1031 in BxPC-3, MIA PaCa-2 and OVCAR-3 tumor cell lines were measured using the CTG method.
(§2) Cells in an exponential growth phase were collected and the viable cells were counted using a Vi-Cell XR cell counter. The cell suspension was adjusted to 3.33×10^4/ml or 5.56×10^4/ml with culture media corresponding to the respective cells. 90 μl of cell suspension was added to each well of a 96-well cell culture plate, and the final cell concentrations of BxPC-3 and MIA PaCa-2 were 3000 cells/well and the final cell concentration of OVCAR-3 was 5000 cells/well. Each test compound was dissolved in DMSO to become 10 mM stock solutions. 3.16× serial dilutions were prepared by the stock solutions and DMSO. Then the dilutions were respectively diluted 100 times with the culture media. Finally, to each well of the respective cell lines was added 10 μl of the corresponding 10-fold solution, triplicate wells were set up for each drug concentration (see the methods for formulating the compounds and the design of sample adding: the plate map for IC50 determination); for the concentration ranges of the test compounds and the reference compounds used for the final tests, please see the methods for formulating the compounds and the design of sample adding on the following pages: the test compounds and the reference compounds were diluted, and the final concentration of DMSO in each well was 0.1%. The cells were placed in an incubator at 37° C. with 5% CO2 to be cultured for 72 hours (BxPC-3, MIA PaCa-2) or 96 hours (OVCAR-3). After 72 or 96 hours of drug treatment, 50 μl (½ culture volume) of CTG solution, which had been melted and equilibrated to room temperature in advance was added to each well according to the operating instruction of CTG; the mixtures were mixed evenly for 2 minutes with a microwell plate shaker, placed at room temperature for 10 minutes, and then an Envision 2104 plate reader was used to measure the values of the […] signals.
(§3) Cell viability was calculated with the formula: Vsample/Vvehicle control×100%, wherein Vsample is the reading of the treatment group and Vvehicle control is the average value of the vehicle control group. Non-linear regression model was used to plot the S-shape dose-survival rate curves and calculate the IC50 values using GraphPad Prism 5.0 software.

[2] = test system: BxPC-3, MIA PaCa-2 and OVCAR-3 tumor cells; experiment: Tumor cell proliferation in vitro, summary over the three cell lines; assay type: cell-based; details: for IC50: span over BxPC-3, MIA PaCa-2 and OVCAR-3, read-out: IC50 values (cytotoxic effect)
Protocol: as §1, §2, §3

OVCAR-3 tumor cells = experiment: Tumor cell proliferation in vitro, CTG method, OVCAR-3; assay type: cell-based; details: OVCAR-3, 96 hours; for IC50: Homo sapiens
Protocol: as §1, §2, §3

BxPC-3 tumor cells = experiment: Tumor cell proliferation in vitro, CTG method, BxPC-3; assay type: cell-based; details: BxPC-3, 72 hours; for IC50: Homo sapiens
Protocol: as §1, §2, §3

SMILES	Relative tumor inhibition rate TGI [1] [%]	IC50 (MIA PaCa-2 tumor cells) [nM]	Max inh. (MIA PaCa-2 tumor cells) [%]	IC50 [2] [nM]	IC50 (OVCAR-3 tumor cells) [nM]	Max inh. (OVCAR-3 tumor cells) [%]	Max inh. (BxPC-3 tumor cells) [%]	IC50 (BxPC-3 tumor cells) [nM]	in vivo antitumor activity, comparison in words ([1]; equimolar dose, i.p., BIW x 4)	inhibitory effect on the proliferation activity of tumor cells in vitro relative to compound Rp-1 ([2]; versus compound Rp-1)
C[C@H](N[P@@](=O)(OC[C@H]1O[C@@H](n2ccc(N)nc2=O)C(F)(F)[C@@H]1O)Oc1ccccc1)C(=O)OCc1ccccc1 [Compound Rp-1]	22	0.126	69.2	0.01 to 1	0.167	54.19	61.54	0.554		
C[C@H](N[P@](=O)(OC[C@H]1O[C@@H](n2ccc(N)nc2=O)C(F)(F)[C@@H]1O)Oc1ccccc1)C(=O)OCc1ccccc1 [Compound Sp-1]	79	0.012	71	0.01 to 1	0.013	58.22	66.48	0.045	better in vivo anti-tumor activity than the compound Rp-1; also recorded: better in vivo antitumor activity as compared with gemcitabine and the compound Rp-1	about 10 times
Nc1ccn([C@@H]2O[C@H](CO)[C@@H](O)C2(F)F)c(=O)n1 [Gemcitabine, reference compound]	55									
C[C@H](NP(=O)(OC[C@H]1O[C@@H](n2ccc(N)nc2=O)C(F)(F)[C@@H]1O)Oc1ccccc1)C(=O)OCc1ccccc1 (stereo partly drawn) [NUC-1031]	54	0.063	65.03	0.01 to 1	0.095	56.3	65.82	0.263		

Source: US10689413B2, “Composition enriched in single isomer of NUC-1031 and preparation method and use thereof” (BrightGene Bio-Medical Technology Co., Ltd., priority 2015, dated 2020)
